# Assays:
# Type in all cases: functional
# [1] = test system: Saccharomyces cerevisiae; assay: Antimicrobial activity against Saccharomyces cerevisiae
# [2] = test system: Botrytis cinerea; assay: Antifungal activity against Botrytis cinerea
# [3] = test system: Phytophthora capsici; assay: Antioomycete activity against Phytophthora capsici by microtiter broth dilution assay
Compound,MIC [1] [µg/mL],MIC [2] [µg/mL],MIC [3] [µg/mL]
Clc1ccc(COC(Cn2ccnc2)c2ccc(Cl)cc2Cl)c(Cl)c1 (stereo not drawn) [MICONAZOLE],5,10,–
NYSTATIN,7,3,–
COCC(=O)N(c1c(C)cccc1C)C(C)C(=O)OC (stereo not drawn) [METALAXYL],–,–,30
CSC(CC(=O)c1ccccc1N)C(=O)O (stereo not drawn) [THIOBUTACIN],30,50,10

# Reference: ChEMBL document CHEMBL1148979, “Thiobutacin, a novel antifungal and antioomycete antibiotic from Lechevalieria aerocolonigenes” (2004)
